As usually defined, the melting point is the temperature, or range, at which the solid turns liquid.

The structures appear in SMILES notation. Residues, ends and D or L forms follow the SMILES beside them. *: point of attachment. Cbz = O=C(OCc1ccccc1)* Some results are limits rather than exact numbers.

For 92 compounds, melting point results are on record in a melting point compilation (Tetko et al.; mined from patent text by program, amines drawn as free bases though some values may be those of a salt).

`CC(=O)C(c1ccc(Cl)cc1)c1c(Cl)cc(-n2ncc(=O)[nH]c2=O)cc1Cl` (configuration not stated): the melting point amounted to 208 °C.
Compound `COc1ccc2ccn3c(C(F)(F)F)nnc3c2c1` displayed a melting point of 152 to 154 °C.
For `CCOCCn1c(N2CCCN(CCC3(c4ccccn4)CCN(C(=O)c4cc(OC)c(OC)c(OC)c4)C3)CC2)nc2ccccc21` (configuration not stated), the melting point is 50 to 55 °C.
The value for `Oc1cccc2oc(Cc3cccc(C(F)(F)F)c3)nc12` was 157 to 158 °C.
Compound `C#CCN(C)c1c(-c2c(F)cc(F)cc2F)c(C#N)nc2ncnn12` yielded a melting point of 147 °C.
Compound `CC(C)OC(=O)c1cc(-n2c(=O)[nH]cc(C#N)c2=O)c(F)cc1Cl` had a melting point of 143 to 145 °C.
Compound `O=C1CC(c2cccc(-c3nc(CO)co3)c2)=Nc2ccc(-n3cccc3)cc2N1` had a melting point of 240 to 242 °C.
The compound `CCOC(=O)C(=O)OCc1ccc(OC)cc1` came in with a melting point of 44 to 45 °C.
Compound `O=C(c1c[nH]c(=O)[nH]1)c1cccs1` displayed a melting point of 339 to 342 °C.
The compound `c1cc(C2CCOCC2)ccn1` yielded a melting point of 60 to 62 °C.
Regarding `CC1(C)OC(=O)C(=CNc2ncnc3ccccc23)C(=O)O1`, the melting point is 191 to 193 °C.
In the case of `N#CS/C=C\C(=O)Oc1ccccc1`, the melting point lay within 79 to 83 °C.
Take `C#CCc1c(O)nc(C)nc1O`: the melting point is > 300 °C.
As for `CNc1cc2c(cc1Cl)CCN(C)C[C@@H]2c1ccccc1`, the melting point lay in the range of 98 to 100 °C.
On to `CCP(=O)(O)CCCN`, for which the melting point lay in the range of 233 to 239 °C.
The same measure for `CCCN(c1ccncc1)n1cc(C(C)=O)c2ccccc21`: 81 to 86 °C; for `CN1CCC(C(=O)NO)(S(=O)(=O)c2ccc(Oc3ccc(Cl)cc3)cc2)CC1`: 52 °C.
Take `Cc1ccc(-c2cc[nH]c2C=O)cc1`: the melting point was 149 to 150 °C.
For `CCCCCCCCCCCCCCOCC(CI)(CI)COCCCCCCCCCCCCCC`, the melting point is 27 to 28 °C.
`C=C(C)C(=O)OCCCCCCCCCCCOC(=O)c1cc(OC(=O)c2ccc(/C=C/C(=O)OC)cc2)ccc1O` gave a melting point of 51 °C.
As to `CCCNC(=O)ON(C(=O)NCCC)C(=O)C1CC1`, the melting point was 76 to 78 °C.
Compound `CCCn1nc2c(N)nc3c(c2c1CC(C)C)CCCC3` showed a melting point of 167 to 168 °C.
As to `CNc1nc(Nc2ccc(Cl)c(CNC(=O)OC(C)(C)C)c2)ncc1[N+](=O)[O-]`, the melting point was 195 °C.
The compound `COC(=O)C(Oc1ccc(Cl)cc1)c1ccc(OCOc2ccc(Cl)cc2)cc1` (configuration not stated) came in with a melting point of 64 to 65 °C.
In turn, `CCCCCCCCCCCCCCCCS(=O)(=O)NCCCCCCCN(C)C` registered a melting point of 56 to 57.5 °C.
For `COC1=C(OC)C(=O)C2=C(CCC(CC(=O)O)CC2)C1=O`, the melting point is 130 to 132 °C.
The value for `O=[N+]([O-])c1ccc2c(c1)SC(c1ccc(Cl)cc1Cl)O2` (configuration not stated) was 106 to 108 °C; that for `CCOC(=O)C1=C(C)NC(C)=C(C(=O)OCC(F)(F)F)C1c1cccc([N+](=O)[O-])c1` (configuration not stated) was 192 °C.
`COP(C)(=O)C1CC(c2ccccc2)=NO1` (configuration not stated): the melting point was in the range of 72 to 74 °C.
Consider `CN(C)CCNc1ccc(NC(=O)Nc2ccc(Oc3ccccc3)cc2)cc1[N+](=O)[O-]`, for which the melting point was 178 to 180 °C.
Compound `Cc1cccc(Cl)c1-n1nc(C(C)C)c(C#N)c1N` had a melting point of 116 to 118 °C.
The same measure for `CSc1ccc(Nc2cc(-c3nnc(C(C)(C)OC(C)=O)o3)ccn2)cc1`: 142 to 143 °C.
Regarding `CCCc1cc(CP(=O)(OC)OC)c2c(CP(=O)(OC)OC)cccc2c1OC`, the melting point is 69 to 70 °C.
`O=C(C=C(c1ccccc1)c1ccccc1)NCCCCc1cccnc1` gave a melting point of 78 to 80 °C.
The same measure for `OC1OC(C2(c3ccccc3)CN2)N2CC12c1ccccc1` (configuration not stated): 53 to 55 °C; for `CCCP(=O)(O)CCCN`: 210 to 213 °C; for `c1ccc(CCN2CCN(c3nc4cccc5c4n3CCC5)CC2)cc1`: 112 to 113 °C.
For `Cc1cc2[nH]c(C)nc(N3CCOCC3)c-2n1`, the melting point fell in the range of 242 to 243 °C.
`COc1cc(CNC(=O)c2cc3c(=O)n(CC4CCCCC4)c(=O)n(C)c3s2)ccn1` came in with a melting point of 167 to 210 °C.
Compound `CCOC(=O)c1cc(CC)sc1Nc1ccc(N)cc1N` registered a melting point of 152 to 155 °C.
For `O=C(C(Cl)Cl)N1CCCCCC1`, the melting point turned out to be 56 °C.
In the case of `CN1CCC2(CC1)OC(=O)c1ccccc12`, the melting point was 147 to 148 °C.
With `N#CN1CCC(Nc2ncc3ncnc(Nc4ccc(F)c(Cl)c4)c3n2)CC1`, the melting point is 245 to 247 °C.
Compound `COc1cc2c(cc1O)CCN(Cc1cccc(C#N)c1)C2` came in with a melting point of 113 to 155 °C.
For `O=C1c2cccc([N+](=O)[O-])c2C(=O)N1CCO`, the melting point was 93 °C.
The value for `O=C(Nc1ccc2nc(CN3CCOCC3)ccc2c1)c1ccc(-c2ccc(Cl)cc2)cc1` was 236 to 238 °C; that for `COc1cccc(-c2cc(C#N)c(SC)[nH]2)c1` was 112 to 113 °C; that for `O=S(=O)(Cc1ccccc1)c1c[nH]c2ccccc12` was 153 to 155 °C.
The same measure for `O=C1c2c(-c3ccccc3F)noc2CCC1CCCN1CCN(c2ncccn2)CC1` (configuration not stated): 115 to 117 °C; for `COc1cc2ncc(C#N)c(Nc3cccc(C(F)(F)F)c3)c2cc1OC`: 190 to 193 °C.
In the case of `COC(=O)c1cccc(-c2cc(-c3ccc(Cl)cc3)on2)c1`, the melting point lay in the range of 157 to 158 °C.
`CC(c1ccc(NC=O)c([N+](=O)[O-])c1)n1ccnc1` (configuration not stated) returned a melting point of 158 °C.
The same measure for `COc1ccc(CS[C@@H]2C[C@@H](C(=O)N(C)OC)N(S(=O)(=O)c3ccc4ccccc4c3)C2)cc1`: 101 to 102 °C.
For `CNc1nnc(-c2ccc3ncn(-c4ccc(OC(F)(F)F)cc4)c3c2)o1`, the melting point lay in the range of 183 to 184 °C.
Compound `CC(C)N(C(=O)CO)c1ccccc1` returned a melting point of 39 °C.
Take `COc1ccc(C2NC(=S)NC(C)=C2C(C)=O)cc1` (racemic): the melting point worked out at 175 °C.
Take `CN(C)c1cc2c(cc1O)CCC1C2CCC2(C)C(=O)CCC12` (configuration not stated): the melting point was 160 to 161 °C.
The compound `CCOC(=O)C1=C(O)c2cc3ccccc3n2CC1` had a melting point of 101 to 103 °C.
`CC(C)c1ccc(S(=O)(=O)Nc2nc(-c3cccc([N+](=O)[O-])c3)cs2)nc1` showed a melting point of 208 to 210 °C.
`C[C@H](NC(=O)OCc1ccccc1)C(=O)N1CCC[C@H]1C(=O)O` (Cbz-Ala-Pro-OH): the melting point was in the range of 124 to 125 °C.
As to `CC(C)NC(=O)CSCC(=O)c1ccc(-c2ccccc2)cc1`, the melting point was 120 to 121 °C.
The value for `CCCC1(C)SC(=NOC(=O)NC)N=C1C` (configuration not stated) was 66 to 69 °C; that for `CCOC(=O)C1=C(COCCNC(=O)N2CCN(C)CC2)NC(C)=C(C(=O)OC)C1c1ccccc1Cl` (configuration not stated) was 78 to 80 °C.
The same measure for `Cn1cc(C(=O)NCc2ccc(Cl)cc2)c(=O)c2cccc(C#CCCO)c21`: 195 to 197 °C; for `CCc1cnccc1C[C@@H](O)C(Cl)(Cl)Cl`: 132 to 134 °C; for `COc1cc(C2(O)CCOCC2)ccc1OCc1ccc2ccccc2c1`: 150 to 151 °C.
The same measure for `CCOC(=O)c1[nH]c2sc(Cl)cc2c1Cl`: 166 to 167 °C.
With `CCN(CC)CC(O)CNC(=O)c1c(OCc2ccccc2)c2ccccc2n1-c1ccccc1` (configuration not stated), the melting point was in the range of 80 to 81 °C.
Turning to `CC(C)c1ccc(C(=O)NC(C)c2ccc(Br)s2)cc1` (configuration not stated), the melting point is 108 °C.
In turn, `COc1nc(C)nc(NC(=O)NS(=O)(=O)c2sccc2C2OCCO2)n1` registered a melting point of 164 to 166 °C.
The compound `CCOC(=O)C1CCc2c([nH]c3ccc(C)cc23)C1` (configuration not stated) yielded a melting point of 117 to 118 °C.
`O=Cc1cc(I)ccc1O` gave a melting point of 99 to 101 °C.
With `CCCCc1nn(-c2ccccc2C(F)(F)F)c(=O)n1Cc1ccc(-c2ccccc2S(=O)(=O)NC(=O)C(c2ccccc2)c2ccccc2)cc1`, the melting point lay within 144 to 146 °C.
The same measure for `Clc1cccc(C2(Cn3cncn3)OCCO2)c1`: 114 °C.
On to `C[C@@H](n1cnc2cc(N3CCN(c4ccc([N+](=O)[O-])cc4)CC3)ccc2c1=O)[C@](O)(Cn1cncn1)c1ccc(F)cc1F`, for which the melting point lay within 287 to 289 °C.
The value for `CC(=O)Nc1ccc(Oc2c([N+](=O)[O-])cc(C(=O)O)cc2S(N)(=O)=O)cc1` was 305 °C; that for `O=c1c2c(Cc3ccc(O)cc3)n[nH]c2c2cccnc2n1-c1ccccc1` was 316 to 317 °C.
Regarding `CCOC(=O)c1cccn2cc(C(Cl)Cl)nc12`, the melting point lay within 108 to 110 °C.
The same measure for `N#Cc1cc(SC(F)(F)F)[nH]c1-c1ccc(Cl)cc1`: 203 to 205 °C; for `O=C/C=C/C=C/c1ccc(OCC(F)(F)C(F)F)cc1`: 53 to 55 °C; for `COc1nc(OC)nc(N(C)C(=O)Oc2ccccc2)n1`: 90 °C.
`COc1ccc(OC(CCCN2C3CCC2CNC3)c2ccc(C#N)cc2)cc1OC` (configuration not stated) displayed a melting point of 38 to 43 °C.
The same measure for `CC(C#CCOc1cccc(Oc2ccccc2)c1)N(O)C(N)=O` (configuration not stated): 98 to 100 °C.
As to `CC(=O)NCC1CC(c2ccc(N3CCCC3)c(F)c2)=NO1` (configuration not stated), the melting point fell in the range of 141 to 143 °C.
The compound `CCOC(=O)c1ccc(CCNS(=O)(=O)C=Cc2ccccc2)cc1` displayed a melting point of 59 to 61 °C.
In turn, `OCc1cnc2sc3c(n12)CCCC3` came in with a melting point of 182 to 183 °C.
For `O=C(c1cccs1)c1cnn2c(-c3cc([N+](=O)[O-])ccc3Cl)ccnc12`, the melting point lay in the range of 162 to 166 °C.
In turn, `O=C(CC(F)(F)F)NCC(=O)n1ccc2cc(/C=C/C(c3cc(Cl)c(F)c(Cl)c3)C(F)(F)F)ccc21` (configuration not stated) yielded a melting point of 121 to 126 °C.
In turn, `COc1cc(CN(C)c2ncnc3c(N4CCOCC4)nc(N4CCC(N(C)C)CC4)nc23)cc2ccccc12` displayed a melting point of 130 °C.
With `CCOC(=O)c1cccc(CSc2nc(-c3ccc(OC)cc3)c(-c3ccc(OC)cc3)[nH]2)c1`, the melting point lay in the range of 147 to 149 °C.
In the case of `CC(C)[C@H](NC(=O)[C@H](C)NC(=O)OCc1ccccc1)[C@@H](O)c1c(-c2ccccc2)c1=O`, the melting point was in the range of 156 to 158 °C.
For the compound `CCCCc1c(CO)nc2ccccc2c1OCc1ccc(-c2ccccc2C(=O)O)cc1`, the melting point was 174 °C.
